# Experimental data published in patent US20110027178A1, “IMAGING THE CENTRAL NERVOUS SYSTEM” (priority 2008, published 2011).
# Molecular target: T1, P2X7 receptor (Homo sapiens, UniProt Q99572)
# T1 construct: expressed in transfected cells; host or cells: HEK.293 cells, transient transfection
# T1 sequence (Q99572 1-595): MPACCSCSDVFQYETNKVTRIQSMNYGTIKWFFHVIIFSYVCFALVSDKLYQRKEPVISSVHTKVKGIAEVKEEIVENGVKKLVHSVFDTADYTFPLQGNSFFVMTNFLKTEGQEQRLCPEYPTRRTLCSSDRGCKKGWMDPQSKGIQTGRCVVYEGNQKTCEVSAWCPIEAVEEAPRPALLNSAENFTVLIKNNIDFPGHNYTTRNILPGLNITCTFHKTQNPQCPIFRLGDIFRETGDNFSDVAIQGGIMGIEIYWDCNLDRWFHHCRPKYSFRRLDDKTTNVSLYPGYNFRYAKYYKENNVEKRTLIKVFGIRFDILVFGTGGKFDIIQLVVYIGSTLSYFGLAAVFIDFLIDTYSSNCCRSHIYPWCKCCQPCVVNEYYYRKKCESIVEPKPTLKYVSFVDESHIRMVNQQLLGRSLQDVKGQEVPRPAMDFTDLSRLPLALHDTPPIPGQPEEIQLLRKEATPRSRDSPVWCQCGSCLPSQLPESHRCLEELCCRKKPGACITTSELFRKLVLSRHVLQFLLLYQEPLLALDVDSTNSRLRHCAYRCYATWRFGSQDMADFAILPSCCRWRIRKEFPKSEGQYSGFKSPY
# Test: Pore-forming assay (Yo Pro-1 dye uptake), P2X7 receptor functional assay
# Assay type: cell-based
# Details: P2X7 transfected HEK.293 cells, Bz-ATP 30 μM, Yo Pro-1 1 μM, triplicate
# Source text: Non-radioactive versions of the Imaging Agents illustrated in Table I were screened in a P2X7 receptor functional assay. This assay is described in Example 9 and is based upon the ability of the P2X7 receptor to form a non-selective pore in P2X7 transfected HEK.293 cells upon activation with an agonist, thereby allowing dye to permeate the cells. The non selective P2X channel antagonist used as a reference inhibitor for the evaluation of the non-radioactive compound of the invention was pyridoxal-phosphate-6-azophenyl-2′,4′-disulfonate (PPADS), and the results of the assay are provided in Table I above.
# The assay method used was based on the ability of the DNA binding dye, Yo Pro-1 (quinolinium, 4[3-methyl-2(3H)-benzoxazolylidene) methyl]-1-[3-(trimethyl-ammonio) propyl]-[…]) to enter through the dilated or “large pore form” of the P2X7 receptor and to bind to intracellular DNA/RNA whereupon it increases fluorescence intensity. Yo Pro-1 was therefore used to quantify inhibition of P2X7 function. This assay was based on the methods published by Michel et al., (B.J. Pharmacol 1998; 125: 1194-1201).
# Initially, HEK.293 cells were transiently transfected using LipofectamineTMLTX (Invitrogen) for 72 hrs with P2X7 cDNA. 48 hours prior to use the cells were seeded into poly-D-lysine coated 96-well black-walled, clear bottomed plates, at a density of 30,000 cells/well. Stock solutions of each test compound were prepared at a concentration of 40 mM in 100% DMSO
# Following the 48 hour incubation the culture medium was removed from the transfected cells, the cells were washed once and placed in pre-warmed sucrose assay buffer (Sucrose: 280 mM, KCl: 5 mM, CaCl2: 0.5 mM, glucose: 10 mM, HEPES: 10 mM, N-methyl-D-glucamine: 10 mM; pH7.4). The test compounds were added to the plate at a concentration of 10 μM and 100 nM in triplicate and incubated at 37° C. for 30 minutes. The final DMSO concentration in the assay was 1%. After this time Yo Pro-1 dye and Bz-ATP solution was added at concentrations of 1 μM and 30 μM respectively for 60 minutes at 37° C. The fluorescence was then read at 485 nm excitation and 530 nm emission.
# The non-selective P2X channel antagonist PPADS was used as a reference inhibitor in the assay. A dose-response to PPADS was performed on the assay plate using a starting concentration of 200 μM followed by a 1 in 6 serial dilution covering 200 μM to 0.4 nM. For each compound data set, a percentage inhibition value was calculated based on the three assay points generated.
% Inhibition (test compound 100 nM) [%],% Inhibition (test compound 10 μM) [%],SMILES
22.0,72.0,"O=C1CSC(=O)N1C(CCc1ccncc1)COc1ccc(-c2cc([N+](=O)[O-])ccc2F)cc1 (stereo not drawn) [Non-radioactive Imaging Agent 2, 3-[1-(2′-Fluoro-5′-nitro-biphenyl-4-yloxymethyl)-3-pyridin-4-yl-propyl]-thiazolidine-2,4-dione]"
0.00,62.0,O=C(CC12CC3CC(CC(C3)C1)C2)Nc1cccc2nc(NCCNCCOCC[18F])ccc12 [Non-radioactive Imaging Agent 3]
10.0,69.6,[18F]c1ncccc1Cn1nnnc1-c1cccc(Cl)c1Cl [Non-radioactive Imaging Agent 5]
